Experimental findings from patent US4311699A, “Aminoacid derivatives of cephalosporin compounds” (priority 1980, dated 1982) are described below.

Assay in all cases: in vitro antibacterial activity, minimal inhibitory concentration
What all share (format): cell-based

One assay concerns Klebs. pneu. The text has this:
(§1) The compounds of the invention are new chemical compounds that are used as pharmacological agents and especially as broad spectrum antibacterial agents. They are active in vitro against strains of both gram-positive and gram-negative bacteria.
(§2) Minimal Inhibitory Concentration (μg/ml)

In the next assay the test system is Pseudomonas BRK 12-4-4. The settings on record: Pseudomonas BRK 12-4-4, in vitro; for MIC: BRK1244.
From the text: as §1, §2

A further assay deals with E. coli Brig. As to conditions: for MIC: Escherichia coli.
From the text: as §1, §2

Another assay deals with Staph. aureus S18733. As to conditions: for MIC: Staphylococcus aureus.
From the text: as §1, §2

A further assay concerns Pseudomonas UI 18. The settings on record: Pseudomonas UI 18, in vitro; for MIC: UI18.
From the text: as §1, §2

The subject of a further assay is Prot. vulg.
From the text: as §1, §2

The subject of a further assay is Pseudomonas #28. As to conditions: Pseudomonas #28, in vitro; for MIC: read-out: Minimal Inhibitory Concentration.
From the text: as §1, §2

In another assay the test system is Staph. aureus UC-76. As to conditions: Staph. aureus UC-76, in vitro; for MIC: Staphylococcus aureus, UC76.
From the text: as §1, §2

Another assay has as its system Strep. fec.
From the text: as §1, §2

In the next assay the test system is Entero. cloacae. As to conditions: for MIC: Enterobacter cloacae.
From the text: as §1, §2

Another assay relates to E. coli Vogel. As to conditions: for MIC: Escherichia coli.
From the text: as §1, §2

In another assay the test system is Serr. marces.
From the text: as §1, §2

Converted amounts (≈) assume the structure as drawn. A value given as a limit tells only on which side of the number the result lay.

For `CC(=O)NCCCC(=O)Nc1ccc(-c2ncc(C(=O)N[C@@H](C(=O)N[C@@H]3C(=O)N4C(C(=O)O)=C(COC(C)=O)CS[C@H]34)c3ccccc3)c(O)n2)cc1` [Example 16, N-[2-[4-(N-Acetyl-γ-aminobutyrylamino)phenyl]-4-hydroxy-5-pyrimidinylcarbonyl]-7-[D-2-amino-2-phenylacetamido]-3-acetoxy-methyl-3-cephem-4-carboxylic acid], the MIC against Klebs. pneu. worked out at 12.5 µg/mL (≈ 16.8 µM); in the assay on Pseudomonas BRK 12-4-4 it was 12.5 µg/mL (≈ 16.8 µM); against E. coli Brig, 50 µg/mL (≈ 67 µM); against Staph. aureus S18733, 3.1 µg/mL (≈ 4.16 µM); in the assay with Pseudomonas UI 18, 12.5 µg/mL (≈ 16.8 µM); in the assay on Prot. vulg., 25 µg/mL (≈ 33.5 µM). Further, the MIC is 6.3 µg/mL (≈ 8.45 µM) in the assay on Pseudomonas #28; 0.8 µg/mL (≈ 1.07 µM) with Staph. aureus UC-76; 25 µg/mL (≈ 33.5 µM) in the assay with Strep. fec.; 25 µg/mL (≈ 33.5 µM) with Entero. cloacae; 6.3 µg/mL (≈ 8.45 µM) in the assay with E. coli Vogel; over 50 µg/mL with Serr. marces..
On to `CC(=O)N1C[C@H](O)C[C@H]1C(=O)Nc1ccc(-c2ncc(C(=O)N[C@@H](C(=O)NC3C(=O)N4C(C(=O)O)=C(CSc5nnnn5C)CS[C@H]34)c3ccccc3)c(O)n2)cc1` (stereo partly drawn) [Example 30, N-[2[4-(N-Acetyl-L-hydroxyprolylamino)phenyl]-4-hydroxy-5-pyrimidinylcarbonyl]-7-[D-2-amino2-phenylacetamido]-3-[[(1-methyl-1H-tetrazol-5-yl)thio]methyl]-3-cephem-4-carboxylic acid], for which the “Minimal Inhibitory Concentration” value with Klebs. pneu. is 3.1 µg/mL; with Pseudomonas BRK 12-4-4 it was 12.5 µg/mL; in the assay with E. coli Brig, 12.5 µg/mL; in the assay on Staph. aureus S18733, 12.5 µg/mL; in the assay on Pseudomonas UI 18, 6.3 µg/mL; in the assay with Prot. vulg. it was 25 µg/mL. In addition, the “Minimal Inhibitory Concentration” value in the assay with Pseudomonas #28 is 6.3 µg/mL; with Staph. aureus UC-76, 3.1 µg/mL; in the assay with Strep. fec., over 50 µg/mL; in the assay with Entero. cloacae, 6.3 µg/mL; with E. coli Vogel it was 3.1 µg/mL; in the assay on Serr. marces., over 50 µg/mL.
Turning to `CC(=O)NCC(=O)Nc1ccc(-c2ncc(C(=O)N[C@@H](C(=O)NC3C(=O)N4C(C(=O)O)=C(CSc5nnc(C)s5)CSC34)c3ccccc3)c(O)n2)cc1` (stereo partly drawn) [Example 39, N-[2-[4-(N-Acetylglycylamino)phenyl]-4-hydroxy-5-pyrimidinylcarbonyl]-7-[D-2-amino-2-phenylacetamido]-3-[[(5-methyl-1,3,4-thiadiazol-2-yl)thio]methyl]-3-cephem-4-carboxylic acid], the MIC came out at 1.6 µg/mL (≈ 2.03 µM) against Klebs. pneu.; 25 µg/mL (≈ 31.7 µM) against Pseudomonas BRK 12-4-4; 12.5 µg/mL (≈ 15.8 µM) against E. coli Brig; 3.1 µg/mL (≈ 3.92 µM) in the assay on Staph. aureus S18733; 25 µg/mL (≈ 31.7 µM) against Pseudomonas UI 18; 6.3 µg/mL (≈ 7.98 µM) with Prot. vulg.. Moreover, the MIC in the assay with Pseudomonas #28 is 12.5 µg/mL (≈ 15.8 µM); against Staph. aureus UC-76 it was 0.8 µg/mL (≈ 1.01 µM); in the assay on Strep. fec., 50 µg/mL (≈ 63.3 µM); with Entero. cloacae it was 6.3 µg/mL (≈ 7.98 µM); in the assay with E. coli Vogel, 1.6 µg/mL (≈ 2.03 µM); in the assay on Serr. marces., 50 µg/mL (≈ 63.3 µM).
Regarding `CC(=O)N[C@H](C)C(=O)Nc1ccc(-c2ncc(C(=O)N[C@@H](C(=O)N[C@@H]3C(=O)N4C(C(=O)O)=C(COC(N)=O)CS[C@H]34)c3ccccc3)c(O)n2)cc1` [Example 21], the MIC was determined as 12.5 µg/mL (≈ 17.1 µM) against Klebs. pneu.; 12.5 µg/mL (≈ 17.1 µM) against Pseudomonas BRK 12-4-4; 25 µg/mL (≈ 34.1 µM) with E. coli Brig; 1.6 µg/mL (≈ 2.18 µM) against Staph. aureus S18733; 12.5 µg/mL (≈ 17.1 µM) with Pseudomonas UI 18; 12.5 µg/mL (≈ 17.1 µM) against Prot. vulg.. The MIC in the assay with Pseudomonas #28 was 3.1 µg/mL (≈ 4.23 µM); against Staph. aureus UC-76 it was 0.8 µg/mL (≈ 1.09 µM); against Strep. fec., 25 µg/mL (≈ 34.1 µM); in the assay on Entero. cloacae it was 25 µg/mL (≈ 34.1 µM); against E. coli Vogel, 12.5 µg/mL (≈ 17.1 µM); against Serr. marces., over 50 µg/mL.
With `CC(=O)OCC1=C(C(=O)O)N2C(=O)C(NC(=O)[C@H](NC(=O)c3cnc(-c4ccc(NC(=O)[C@@H]5C[C@@H](O)CN5C(C)=O)cc4)nc3O)c3ccccc3)[C@H]2SC1` (stereo partly drawn) [Example 15, N-[2-[4-(N-Acetyl-L-hydroxyprolylamino)phenyl]-4-hydroxy-5-pyrimidinylcarbonyl]-7-[D-2-amino-2-phenylacetamido]-3-acetoxymethyl-3-cephem-4-carboxylic acid], the “Minimal Inhibitory Concentration” value in the assay on Klebs. pneu. was 12.5 µg/mL; with Pseudomonas BRK 12-4-4, 12.5 µg/mL; with E. coli Brig, 50 µg/mL; in the assay on Staph. aureus S18733 it was 6.3 µg/mL; with Pseudomonas UI 18 it was 3.1 µg/mL; with Prot. vulg., 50 µg/mL. For the same molecule, the “Minimal Inhibitory Concentration” value with Pseudomonas #28 is 3.1 µg/mL; with Staph. aureus UC-76 it was 1.6 µg/mL; in the assay with Strep. fec. it was 25 µg/mL; in the assay on Entero. cloacae, over 50 µg/mL; in the assay on E. coli Vogel, 6.3 µg/mL; in the assay with Serr. marces., over 50 µg/mL.
`CC(=O)OCC1=C(C(=O)O)N2C(=O)[C@@H](NC(=O)[C@H](NC(=O)c3cnc(-c4ccc(NC(=O)[C@@H](C)N)cc4)nc3O)c3ccccc3)[C@H]2SC1` [Example 18, N-[2-[4-(D-Alanylamino)phenyl]-4-hydroxy-5-pyrimidinylcarbonyl]-7-[D-2-amino-2-phenylacetamido]-3-acetoxymethyl-3cephem-4-carboxylic acid]: the MIC was found to be 25 µg/mL (≈ 36.2 µM) in the assay with Klebs. pneu.; 6.3 µg/mL (≈ 9.13 µM) in the assay with Pseudomonas BRK 12-4-4; 50 µg/mL (≈ 72.5 µM) in the assay on E. coli Brig; 6.3 µg/mL (≈ 9.13 µM) against Staph. aureus S18733; 1.6 µg/mL (≈ 2.32 µM) against Pseudomonas UI 18; 25 µg/mL (≈ 36.2 µM) against Prot. vulg.. Besides, the MIC in the assay on Pseudomonas #28 is 3.1 µg/mL (≈ 4.49 µM); against Staph. aureus UC-76, 1.6 µg/mL (≈ 2.32 µM); in the assay with Strep. fec. it was 25 µg/mL (≈ 36.2 µM); in the assay with Entero. cloacae, 50 µg/mL (≈ 72.5 µM); in the assay on E. coli Vogel, 12.5 µg/mL (≈ 18.1 µM); with Serr. marces., over 50 µg/mL.
As for `CC(=O)NC(C)C(=O)Nc1ccc(-c2ncc(C(=O)N[C@@H](C(=O)N[C@@H]3C(=O)N4C(C(=O)O)=C(COC(C)=O)CS[C@H]34)c3ccccc3)c(O)n2)cc1` (mixture of isomers) [Example 8, N-[2-[4-(N-Acetyl-DL-alanylamino)phenyl]-4-hydroxy-5-pyrimidinylcarbonyl]-7-[D-2-amino-2-phenylacetamido]-3-acetoxymethyl-3-cephem-4-carboxylic acid], the MIC was 6.3 µg/mL against Klebs. pneu.; 12.5 µg/mL in the assay with Pseudomonas BRK 12-4-4; 25 µg/mL in the assay with E. coli Brig; 1.6 µg/mL against Staph. aureus S18733; 6.3 µg/mL against Pseudomonas UI 18; 50 µg/mL against Prot. vulg.. Also, the MIC is 6.3 µg/mL in the assay on Pseudomonas #28; 1.6 µg/mL in the assay on Staph. aureus UC-76; 50 µg/mL against Strep. fec.; 50 µg/mL with Entero. cloacae; 6.3 µg/mL in the assay on E. coli Vogel; over 50 µg/mL in the assay with Serr. marces..
As to `CSCCC(NC(C)=O)C(=O)Nc1ccc(-c2ncc(C(=O)N[C@@H](C(=O)N[C@@H]3C(=O)N4C(C(=O)O)=C(COC(C)=O)CS[C@H]34)c3ccccc3)c(O)n2)cc1` (mixture of isomers) [Example 5, N-[2-[4-(N-Acetyl-DL-methionylamino)phenyl]-4-hydroxy-5-pyrimidinylcarbonyl]-7-[D-2-amino-2-phenylacetamido]-3-acetoxymethyl-3-cephem-4-carboxylic acid], the MIC in the assay with Klebs. pneu. came to 12.5 µg/mL; against Pseudomonas BRK 12-4-4 it was 6.3 µg/mL; with E. coli Brig it was 25 µg/mL; against Staph. aureus S18733, 3.1 µg/mL; in the assay with Pseudomonas UI 18, 6.3 µg/mL; against Prot. vulg., 25 µg/mL. For the same molecule, the MIC in the assay on Pseudomonas #28 is 3.1 µg/mL; with Staph. aureus UC-76, 1.6 µg/mL; with Strep. fec., 50 µg/mL; with Entero. cloacae, 25 µg/mL; against E. coli Vogel, 6.3 µg/mL; in the assay with Serr. marces. it was over 50 µg/mL.
For the molecule `CC(=O)NC(CC(C)C)C(=O)Nc1ccc(-c2ncc(C(=O)N[C@@H](C(=O)N[C@@H]3C(=O)N4C(C(=O)O)=C(COC(C)=O)CS[C@H]34)c3ccccc3)c(O)n2)cc1` (mixture of isomers) [Example 4, N-[2-[4-(N-Acetyl-DL-leucylamino)phenyl]-4-hydroxy-5-pyrimidinylcarbonyl]-7-[D-2-amino-2-phenylacetamido]-3-acetoxymethyl-3-cephem-4-carboxylic acid], the MIC turned out to be 25 µg/mL in the assay on Klebs. pneu.; 12.5 µg/mL against Pseudomonas BRK 12-4-4; 25 µg/mL in the assay on E. coli Brig; 6.3 µg/mL against Staph. aureus S18733; 12.5 µg/mL with Pseudomonas UI 18; 25 µg/mL in the assay on Prot. vulg.. The MIC with Pseudomonas #28 is 12.5 µg/mL; against Staph. aureus UC-76 it was 1.6 µg/mL; in the assay with Strep. fec., 50 µg/mL; in the assay with Entero. cloacae, 25 µg/mL; with E. coli Vogel, 6.3 µg/mL; against Serr. marces., over 50 µg/mL.
For the molecule `CC(=O)OCC1=C(C(=O)O)N2C(=O)[C@@H](NC(=O)[C@H](NC(=O)c3cnc(-c4ccc(NC(=O)C5CCCN5C(C)=O)cc4)nc3O)c3ccccc3)[C@H]2SC1` (mixture of isomers) [Example 13, N-[2-[4-(N-Acetyl-DL-prolylamino)phenyl]-4-hydroxy-5-pyrimidinylcarbonyl]-7-[D-2-amino-2-phenylacetamido]-3-acetoxy-methyl-3-cephem-4-carboxylic acid], the MIC in the assay with Klebs. pneu. was found to be 25 µg/mL; with Pseudomonas BRK 12-4-4 it was 12.5 µg/mL; with E. coli Brig it was 50 µg/mL; with Staph. aureus S18733, 6.3 µg/mL; against Pseudomonas UI 18, 12.5 µg/mL; with Prot. vulg., 50 µg/mL. Also, the MIC in the assay with Pseudomonas #28 was 6.3 µg/mL; in the assay on Staph. aureus UC-76, 3.1 µg/mL; in the assay on Strep. fec., 50 µg/mL; with Entero. cloacae, 50 µg/mL; in the assay on E. coli Vogel, 12.5 µg/mL; with Serr. marces. it was over 50 µg/mL.
